≈ marks a conversion by molar mass, not a printed value. Where two headings read alike, the source gives them in different places. Values belong to the molecule of their own block, whether it stands above or below them. Numbered stars: 1 amine (or outer) side, 2 acyl side, 3 side chain; on linkers, the order of the positions; unused ones are H or OH. Bridge positions count the residues as written; N and C are the ends. Square brackets hold non-standard residues; d marks the D form. Peptide text beside a SMILES is read from it. * marks the point of attachment. hTyr(3S-OH,4S-OH,3'-OSO3H) = N[C@H](C(=O)O)[C@H](O)[C@@H](O)c1ccc(O)c(OS(=O)(=O)O)c1; Orn(4R-OH,5R-OH) = O=C([C@H](C[C@@H](O)[C@@H](O)N[*:3])N[*:1])[*:2]; Pro(3S-OH,4S-Me) = C[C@H]1CN[C@H](C(=O)O)[C@H]1O; X1 = CCCCCOc1ccc(-c2cc(-c3ccc(C(=O)*)cc3)no2)cc1; Gln(3R-OH) = NC(=O)C[C@@H](O)[C@H](N)C(=O)O; Hyp = O=C(O)[C@@H]1C[C@@H](O)CN1
Assays:
[1] = test system: A. fumigatus; test: Alamar blue metabolic activity assay; type: cell-based, Aspergillus fumigatus; conditions: for interaction with BRI in inhibition of metabolic activity (Alamar blue): increasing concentrations + BRI 20 μM, 48 hours
[2] = test system: A. fumigatus; test: Protein kinase inhibitor (PKI) library screen with or without BRI; conditions: for growth, PKI (20 μM): PKI 20 μM alone; for growth, PKI (20 μM) + BRI (20 μM): PKI 20 μM together with BRI 20 μM
[3] = test system: A. fumigatus; test: MIC/MEC, CLSI M38-A2; type: cell-based, Aspergillus fumigatus; conditions: Aspergillus fumigatus, read-out: MIC VOR
[4] = test system: A. fumigatus conidia infecting A549 pulmonary cells; test: Killing assay in infected A549 cells; type: cell-based, Aspergillus fumigatus; conditions: monotherapy
Protocol: Killing assay: The type II pneumocyte cell line A549 was cultured using DMEM (ThermoFischer Scientific, Paisley. […] After 24 hours of incubation in 5% CO2 the culture media was removed, and 2 ml of sterile water was added to the wells. A P1000 tip was then used to scrape away the cell monolayer and the cell suspension was collected. This suspension was then diluted 1:1000 and 100 μl was plated on Sabouraud Dextrose Agar Media before the plates were incubated a 37° C. overnight. The numbers of CFUs were determined after 24 hours of growth. A volume of 50 μl of the inoculum adjusted to 103/ml was also plated on SAB agar to correct CFU counts. The CFU percentage for each sample was calculated and the results were plotted using Graphpad Prism (GraphPad Software, Inc., La Jolla, CA, USA).

[5] = test system: A. fumigatus biofilms; test: Biofilm assay (XTT); conditions: Aspergillus fumigatus, read-out: inhibition of biofilm formation
[6] = test system: A. fumigatus clinical isolates; test: Growth inhibition of clinical isolates by CAS, VOR, BRI and combinations; conditions: strain CYP15-15-109, VOR
[7] = test system: Mucorales Mucor species; test: In vitro susceptibility (MIC), macrobroth dilution; type: cell-based; conditions: Mucor sp. 13-127, drug alone; for MIC50: lowest concentration causing 50% decrease in growth vs untreated control; for MIC100: lowest concentration without growth
[8] = test system: Candida albicans; test: In vitro susceptibility (MIC), macrobroth dilution; type: cell-based; conditions: C. albicans 5, drug alone
[9] = test system: Aspergillus fumigatus; test: In vitro susceptibility (MIC), macrobroth dilution; type: cell-based; conditions: drug alone; for MIC50: lowest concentration causing 50% decrease in growth vs untreated control; for MIC100: lowest concentration without growth
[10] = test system: A549 human lung cancer cells; type: cell-based; conditions: 48 h, 10 %
Protocol: Cytotoxicity assay: Cytotoxicity assays in A549 human lung cancer cells were performed using XTT assay as indicated in the manufacturers' instructions. Cells (2×10^5 cells/well) were seeded in 96-well tissue plates and incubated in Dulbecco's Modified Eagle Medium (DMEM) culture medium. After 24 hours of incubation, the cells were treated with BRI (40 and 80 μM/well), CAS (50, 100 and 200 μg/well) or in different CAS+BRI combinations. After 48 hours incubation, the cell viability was assessed by using the XTT kit (Roche Applied Science) according to the manufacturer's instructions. Formazan formation was quantified spectrophotometrically at 450 nm (reference wavelength 620 nm) using a microplate reader. The experiment was made in three replicates. Viability was calculated using the background-corrected absorbance as follows: Cell viability (%)=absorbance value of experiment well/absorbance value of control well×100.

[11] = test system: Cryptococcus neoformans; test: In vitro susceptibility (MIC), macrobroth dilution; type: cell-based; conditions: C. neoformans CN9759, drug alone
[12] = lowest concentration causing 50% decrease in growth vs untreated control
[13] = lowest concentration without growth

Molecule: Nc1ncnc2c1c(-c1cnc3[nH]ccc3c1)nn2C1CCCC1 [PP121]
effect on BRI activity (metabolic activity, Alamar blue) [1]: potentiating the BRI activity
growth, PKI (20 μM) [2]: ++ (++: growth ≥80% compared to no treatment)
growth, PKI (20 μM) + BRI (20 μM) [2]: + (+: growth ≤60% compared to no treatment)

Molecule: C[C@@H](c1ncncc1F)[C@](O)(Cn1cncn1)c1ccc(F)cc1F [VOR, voriconazole]
MIC ([3]; A. fumigatus VOR^R clinical isolate named in c0 of the row): 8 mg/L (≈ 22.9 µM)
MIC ([3]; A. fumigatus WT (CEA17)): 2 mg/L (≈ 5.73 µM)
A. fumigatus killing [4]: ~60%
inhibition at 2 µg/mL [5]: ~10%
inhibition at 4 µg/mL [5]: ~50%
growth inhibition [6]: totally inhibited

Molecule: CCCCCOc1ccc(-c2cc(-c3ccc(C(=O)N[C@H]4C[C@@H](O)[C@@H](O)NC(=O)[C@@H]5[C@@H](O)[C@@H](C)CN5C(=O)[C@H]([C@H](O)CC(N)=O)NC(=O)[C@H]([C@H](O)[C@@H](O)c5ccc(O)c(OS(=O)(=O)O)c5)NC(=O)[C@@H]5C[C@@H](O)CN5C(=O)[C@H]([C@@H](C)O)NC4=O)cc3)no2)cc1 [Micafungin (MICA)] (X1-[Orn(4R-OH,5R-OH)]T[Hyp][hTyr(3S-OH,4S-OH,3'-OSO3H)][Gln(3R-OH)][Pro(3S-OH,4S-Me)]; lactam 1-C)
MIC50 [7]: >16 mg/L
MIC100 [7]: >16 mg/L
MIC50 [8, 12]: ≤0.03 mg/L
MIC100 [8, 13]: 0.25 mg/L (≈ 0.197 µM)
MIC50 ([9]; A. fumigatus 21-23): ≤0.06 mg/L
MIC100 ([9]; A. fumigatus 21-23): >16 mg/L

MIC50 [7]: 1 mg/L (≈ 1.43 µM)
MIC100 [7]: >16 mg/L
Molecule: CC[C@@H]([C@H](C)O)n1ncn(-c2ccc(N3CCN(c4ccc(OC[C@@H]5CO[C@@](Cn6cncn6)(c6ccc(F)cc6F)C5)cc4)CC3)cc2)c1=O [Posaconazole (POSA)]

Molecule: calphostin C
interaction with BRI in inhibition of metabolic activity (Alamar blue) [1]: synergize

MIC50 ([9]; A. fumigatus 10AF): >64 mg/L
MIC100 ([9]; A. fumigatus 10AF): >64 mg/L
Molecule: Nc1nc(=O)[nH]cc1F [Flucytosine (FLCY)]

Molecule: C[S+](C)[O-] [DMSO, dimethyl sulfoxide]
reduction of cell viability [10]: 80%

Molecule: OC(Cn1cncn1)(Cn1cncn1)c1ccc(F)cc1F [Fluconazole (FLU)]
MIC50 [11, 12]: 1 mg/L (≈ 3.27 µM)
MIC100 [11, 13]: 1 mg/L (≈ 3.27 µM)

Molecule: COc1ccc2c(c[n+](C)c3c4cc5c(cc4ccc23)OCO5)c1OC [chelerenthrine]
interaction with BRI in inhibition of metabolic activity (Alamar blue) [1]: synergize

MIC50 [7]: 0.25 mg/L (≈ 0.271 µM)
MIC100 [7]: 0.5 mg/L (≈ 0.541 µM)
Molecule: C[C@@H]1[C@H](O)[C@@H](C)/C=C/C=C/C=C/C=C/C=C/C=C/C=C/[C@H](O[C@@H]2O[C@H](C)[C@@H](O)[C@H](N)[C@@H]2O)C[C@@H]2O[C@](O)(C[C@@H](O)C[C@@H](O)[C@H](O)CC[C@@H](O)C[C@@H](O)CC(=O)O[C@H]1C)C[C@H](O)[C@H]2C(=O)O [Amphotericin B (AMPB)]

Molecule: CCn1c(=O)c(-c2ccc(Cl)cc2Cl)cc2cnc(Nc3ccc(N4CCNCC4)c(F)c3)nc21 [FRAX486]
effect on BRI activity (metabolic activity, Alamar blue) [1]: potentiating the BRI activity
growth, PKI (20 μM) [2]: ++ (++: growth ≥80% compared to no treatment)
growth, PKI (20 μM) + BRI (20 μM) [2]: + (+: growth ≤60% compared to no treatment)

Reference: patent publication US20240139188A1, “Arylamide Compounds For Treatment And Prevention Of Fungal Infections” (priority 2022, published 2024)
